Source: ChEMBL document CHEMBL3046026, “Evaluation of the curative and protectant activity of fungicides and fungicide-adjuvant mixtures on Phomopsis cane and leaf spot of grape: A controlled environment study” (2007)
Active and inactive are the calls of the source. The calls are words filed in the database; no cut-off is given here.

Tests used:
Diaporthe ampelina [1] = assay: Antifungal activity against Diaporthe ampelina infected grape plant assessed as re-isolation of mycelium from infected vines at 0.12 kg a.i./ha treated for weeks in presence of regulaid followed by inoculation on medium measured after 72 hr (reference value: 62.5%); format: functional
Diaporthe ampelina [2] = assay: Antifungal activity against Diaporthe ampelina infected grape plant assessed as disease severity at internodes at 0.12 kg a.i./ha treated 3 to 6 hr prior to inoculation followed by 24 hr wetness period measured after 4 weeks (reference value: 2.6%); format: functional
Diaporthe ampelina [3] = assay: Antifungal activity against Diaporthe ampelina infected grape plant assessed as decrease in lesions on leaf at 0.12 kg a.i./ha treated 3 to 6 hr prior to inoculation followed by 24 hr wetness period measured after 4 weeks relative to control; format: functional, organism-based
Diaporthe ampelina [4] = assay: Antifungal activity against Diaporthe ampelina infected grape plant assessed as disease severity at internodes at 0.12 kg a.i./ha incubated for 24 hr prior to treatment with 20 hr wetness period followed by 4 hr drying period measured after 4 weeks in presence of regulaid (reference value: 4.7%); format: functional
Diaporthe ampelina [5] = assay: (§1) Antifungal activity against Diaporthe ampelina infected grape plant assessed as disease severity at internodes at 0.12 kg a.i./ha incubated for 48 hr prior to treatment with 24 hr wetness period followed by 24 hr of drying period measured after 4 weeks in presence of regulaid (reference value: 12.2%); format: functional
Diaporthe ampelina [6] = assay: Antifungal activity against Diaporthe ampelina infected grape plant assessed as disease severity at internodes at 0.12 kg a.i./ha incubated for 20 hr prior to treatment with 16 hr wetness period and 4 hr drying time measured after 4 weeks in presence of regulaid (reference value: 7.3%); format: functional
Diaporthe ampelina [7] = assay: Antifungal activity against Diaporthe ampelina infected grape plant assessed as disease severity at internodes at 0.5 kg/ha incubated for 24 hr prior to treatment with 20 hr wetness period followed by 4 hr drying period measured after 4 weeks in presence of regulaid (reference value: 3.2%); format: functional
Diaporthe ampelina [8] = assay: Antifungal activity against Diaporthe ampelina infected grape plant assessed as decrease in lesions on leaf at 0.12 kg a.i./ha treated 3 to 6 hr prior to inoculation followed by 24 hr wetness period measured after 4 weeks relative to control in presence of regulaid; format: functional, organism-based
Diaporthe ampelina [9] = assay: Antifungal activity against Diaporthe ampelina infected grape plant assessed as decrease in lesions on leaf at 0.12 kg a.i./ha incubated for 20 hr prior to treatment with 16 hr wetness period and 4 hr drying time measured after 4 weeks relative to control in presence of regulaid; format: functional, organism-based
Diaporthe ampelina [10] = assay: Antifungal activity against Diaporthe ampelina infected grape plant assessed as decrease in lesions on leaf at 0.12 kg a.i./ha incubated for 48 hr prior to treatment with 24 hr wetness period followed by 24 hr of drying period measured after 4 weeks relative to control in presence of regulaid; format: functional, organism-based
Diaporthe ampelina [11] = assay: Antifungal activity against Diaporthe ampelina infected grape plant assessed as decrease in lesions on leaf at 0.12 kg a.i./ha incubated for 24 hr prior to treatment with 20 hr wetness period followed by 4 hr drying period measured after 4 weeks relative to control in presence of regulaid; format: functional, organism-based
Diaporthe ampelina [12] = assay: Antifungal activity against Diaporthe ampelina infected grape plant assessed as disease severity at internodes at 0.12 kg a.i./ha treated 3 to 6 hr prior to inoculation followed by 24 hr wetness period measured after 4 weeks in presence of regulaid (reference value: 2.9%); format: functional
Diaporthe ampelina [13] = assay: Antifungal activity against Diaporthe ampelina infected grape plant assessed as decrease in lesions on leaf at 0.5 kg/ha incubated for 24 hr prior to treatment with 20 hr wetness period followed by 4 hr drying period measured after 4 weeks relative to control in presence of regulaid; format: functional, organism-based
Diaporthe ampelina [14] = assay: Antifungal activity against Diaporthe ampelina infected grape plant assessed as disease severity at internodes at 1.19 kg a.i./ha incubated for 24 hr prior to treatment with 20 hr wetness period followed by 4 hr drying period measured after 4 weeks in presence of regulaid (reference value: 4.7%); format: functional
Diaporthe ampelina [15] = assay: Antifungal activity against Diaporthe ampelina infected grape plant assessed as disease severity at internodes at 2.6 kg/ha incubated for 24 hr prior to treatment with 20 hr wetness period followed by 4 hr drying period measured after 4 weeks in presence of stylet oil(reference value: 3.2%); format: functional
Diaporthe ampelina [16] = assay: Antifungal activity against Diaporthe ampelina infected grape plant assessed as disease severity at internodes at 1.19 kg a.i./ha treated 3 to 6 hr prior to inoculation followed by 24 hr wetness period measured after 4 weeks in presence of regulaid (reference value: 2.9%); format: functional
Diaporthe ampelina [17] = assay: Antifungal activity against Diaporthe ampelina infected grape plant assessed as disease severity at internodes at 1.19 kg a.i./ha treated 3 to 6 hr prior to inoculation followed by 24 hr wetness period measured after 4 weeks (reference value: 2.6%); format: functional
Diaporthe ampelina [18] = assay: Antifungal activity against Diaporthe ampelina infected grape plant assessed as disease severity at internodes at 1.19 kg a.i./ha treated 3 to 6 hr prior to inoculation followed by 24 hr wetness period measured after 4 weeks in presence of stylet-oil(reference value: 2.9%); format: functional
Diaporthe ampelina [19] = assay: Antifungal activity against Diaporthe ampelina infected grape plant assessed as decrease in lesions on leaf at 1.19 kg a.i./ha incubated for 48 hr prior to treatment with 24 hr wetness period followed by 24 hr of drying period measured after 4 weeks relative to control in presence of regulaid; format: functional, organism-based
Diaporthe ampelina [20] = assay: Antifungal activity against Diaporthe ampelina infected grape plant assessed as decrease in lesions on leaf at 2.6 kg/ha incubated for 24 hr prior to treatment with 20 hr wetness period followed by 4 hr drying period measured after 4 weeks relative to control in presence of regulaid; format: functional, organism-based
Diaporthe ampelina [21] = assay: as §1, with “1.19” for “0.12”; format: functional
Diaporthe ampelina [22] = assay: Antifungal activity against Diaporthe ampelina infected grape plant assessed as disease severity at internodes at 1.19 kg a.i./ha incubated for 24 hr prior to treatment with 20 hr wetness period followed by 4 hr drying period measured after 4 weeks in presence of stylet oil(reference value: 4.7%); format: functional
Diaporthe ampelina [23] = assay: Antifungal activity against Diaporthe ampelina infected grape plant assessed as re-isolation of mycelium from infected vines at 1.19 kg a.i./ha treated for weeks in presence of regulaid followed by inoculation on medium measured after 72 hr (reference value: 62.5%); format: functional
Diaporthe ampelina [24] = assay: Antifungal activity against Diaporthe ampelina infected grape plant assessed as decrease in lesions on leaf at 1.19 kg a.i./ha incubated for 48 hr prior to treatment with 24 hr wetness period followed by 24 hr of drying period measured after 4 weeks relative to control in presence of stylet oil; format: functional, organism-based
Diaporthe ampelina [25] = assay: Antifungal activity against Diaporthe ampelina infected grape plant assessed as re-isolation of mycelium from infected vines at 1.19 kg a.i./ha treated for weeks in presence of stylet oil followed by inoculation on medium measured after 72 hr (reference value: 62.5%); format: functional
Diaporthe ampelina [26] = assay: Antifungal activity against Diaporthe ampelina infected grape plant assessed as decrease in lesions on leaf at 1.19 kg a.i./ha incubated for 20 hr prior to treatment with 16 hr wetness period and 4 hr drying time measured after 4 weeks relative to control in presence of regulaid; format: functional, organism-based
Diaporthe ampelina [27] = assay: Antifungal activity against Diaporthe ampelina infected grape plant assessed as decrease in lesions on leaf at 2.6 kg/ha incubated for 24 hr prior to treatment with 20 hr wetness period followed by 4 hr drying period measured after 4 weeks relative to control in presence of stylet oil; format: functional, organism-based
Diaporthe ampelina [28] = assay: Antifungal activity against Diaporthe ampelina infected grape plant assessed as decrease in lesions on leaf at 1.19 kg a.i./ha treated 3 to 6 hr prior to inoculation followed by 24 hr wetness period measured after 4 weeks relative to control in presence of stylet oil; format: functional, organism-based
Diaporthe ampelina [29] = assay: Antifungal activity against Diaporthe ampelina infected grape plant assessed as disease severity at internodes at 2.6 kg/ha incubated for 24 hr prior to treatment with 20 hr wetness period followed by 4 hr drying period measured after 4 weeks in presence of regulaid (reference value: 3.2%); format: functional
Diaporthe ampelina [30] = assay: Antifungal activity against Diaporthe ampelina infected grape plant assessed as decrease in lesions on leaf at 1.19 kg a.i./ha incubated for 24 hr prior to treatment with 20 hr wetness period followed by 4 hr drying period measured after 4 weeks relative to control in presence of stylet oil; format: functional, organism-based
Diaporthe ampelina [31] = assay: Antifungal activity against Diaporthe ampelina infected grape plant assessed as disease severity at internodes at 1.19 kg a.i./ha incubated for 20 hr prior to treatment with 16 hr wetness period and 4 hr drying time measured after 4 weeks in presence of stylet oil(reference value: 7.3%); format: functional
Diaporthe ampelina [32] = assay: Antifungal activity against Diaporthe ampelina infected grape plant assessed as decrease in lesions on leaf at 1.19 kg a.i./ha incubated for 20 hr prior to treatment with 16 hr wetness period and 4 hr drying time measured after 4 weeks relative to control in presence of stylet oil; format: functional, organism-based
Diaporthe ampelina [33] = assay: Antifungal activity against Diaporthe ampelina infected grape plant assessed as decrease in lesions on leaf at 1.19 kg a.i./ha treated 3 to 6 hr prior to inoculation followed by 24 hr wetness period measured after 4 weeks relative to control in presence of regulaid; format: functional, organism-based
Diaporthe ampelina [34] = assay: as §1, with “1.19” for “0.12”, “stylet oil” for “regulaid”; format: functional
Diaporthe ampelina [35] = assay: Antifungal activity against Diaporthe ampelina infected grape plant assessed as decrease in lesions on leaf at 1.19 kg a.i./ha incubated for 24 hr prior to treatment with 20 hr wetness period followed by 4 hr drying period measured after 4 weeks relative to control in presence of regulaid; format: functional, organism-based
Diaporthe ampelina [36] = assay: Antifungal activity against Diaporthe ampelina infected grape plant assessed as disease severity at internodes at 1.19 kg a.i./ha incubated for 20 hr prior to treatment with 16 hr wetness period and 4 hr drying time measured after 4 weeks in presence of regulaid (reference value: 7.3%); format: functional
Diaporthe ampelina [37] = assay: Antifungal activity against Diaporthe ampelina infected grape plant assessed as decrease in lesions on leaf at 1.19 kg a.i./ha treated 3 to 6 hr prior to inoculation followed by 24 hr wetness period measured after 4 weeks relative to control; format: functional, organism-based

## CCCCC(C#N)(Cn1cncn1)c1ccc(Cl)cc1 (configuration not stated) [MYCLOBUTANIL]
Diaporthe ampelina [1]
  Activity: 68.7%
Diaporthe ampelina [2]
  Activity: 0.6%
Diaporthe ampelina [3]
  Activity: inactive
Diaporthe ampelina [4]
  Activity: 3.5%
Diaporthe ampelina [5]
  Activity: 6.7%
Diaporthe ampelina [6]
  Activity: 5.2%
Diaporthe ampelina [7]
  Activity: 3.1%
Diaporthe ampelina [8]
  Activity: inactive
Diaporthe ampelina [9]
  Activity: inactive
Diaporthe ampelina [10]
  Activity: inactive
Diaporthe ampelina [11]
  Activity: inactive
Diaporthe ampelina [12]
  Activity: 0.1%
Diaporthe ampelina [13]
  Activity: inactive

## COC(=O)NC(=S)Nc1ccccc1NC(=S)NC(=O)OC [THIOPHANATE METHYL]
Diaporthe ampelina [14]
  Activity: 3.3%
Diaporthe ampelina [15]
  Activity: 1.8%
Diaporthe ampelina [16]
  Activity: 1%
Diaporthe ampelina [17]
  Activity: 0.1%
Diaporthe ampelina [18]
  Activity: 2%
Diaporthe ampelina [19]
  Activity: inactive
Diaporthe ampelina [20]
  Activity: inactive
Diaporthe ampelina [21]
  Activity: 3.8%
Diaporthe ampelina [22]
  Activity: 0.7%
Diaporthe ampelina [23]
  Activity: 37.1%
Diaporthe ampelina [24]
  Activity: inactive
Diaporthe ampelina [25]
  Activity: 41.1%
Diaporthe ampelina [26]
  Activity: inactive
Diaporthe ampelina [27]
  Activity: inactive
Diaporthe ampelina [28]
  Activity: Active
Diaporthe ampelina [29]
  Activity: 0.7%
Diaporthe ampelina [30]
  Activity: inactive
Diaporthe ampelina [31]
  Activity: 7.5%
Diaporthe ampelina [32]
  Activity: inactive
Diaporthe ampelina [33]
  Activity: Active
Diaporthe ampelina [34]
  Activity: 5.1%
Diaporthe ampelina [35]
  Activity: inactive
Diaporthe ampelina [36]
  Activity: 4%
Diaporthe ampelina [37]
  Activity: Active
